One experiment concerns isolated rat hearts. The experiment in a line: In vitro model for ischemia (perfused isolated rat hearts). Particulars: 5 mM lactate. The method, then:
In order to determine the suitability of lactate for the treatment of conditions such as ischemia-reperfusion, isolated rat harts were perfused either with perfusion medium containing 5 mM lactate or with a perfusion medium (control) containing 0.2 mM of hexanoic acid and 5.5 mM glucose in accordance with the protocol described by Garnier A. et al., J Mol Cell Cardiol 1996, 28, 1671-1682.

Experiment [1] has as its system patients suffering from brain injury (brain trauma) with increased intracranial pressure. The experiment in a line: Treatment of increased intracranial pressure caused by brain trauma. In kind it is in vivo, human. The method, then: For this purpose, the composition of the invention or the mannitol was administered (infused) to a group of each twelve patients and the ICP was measured every 15 minutes.
The results of this study, in which 12 patients were either treated with mannitol or the hypertonic lactate solution of the invention, are shown in FIGS. 1 to 4 as well as in Tables 2 to 5.

Data on 2 molecules can be found in patent publication US20080125488A1, “Lactate Containing Pharmaceutical Composition and Uses Thereof” (priority 2003, published 2008).

As for `CC(O)C(=O)O` (centres unmarked) [lactate], in the experiment on isolated rat hearts (40 minutes perfusion after 40 minutes ischemia, compared to control (FIG. 9A)), the rate pressure product entry is “significantly higher and prolonged increase”. The heart rate result in the experiment on isolated rat hearts (40 minutes perfusion after 40 minutes ischemia, compared to control (FIG. 9C)) is “significantly higher and prolonged increase”. Further, in the experiment with isolated rat hearts (compared to control (FIG. 9B)), the diastolic pressure entry was “significantly decreased”.

For the molecule `OC[C@@H](O)[C@@H](O)[C@H](O)[C@H](O)CO` [mannitol], in experiment [1] (after treatment), the CPP after treatment was 73.2 ± 2.4 mm Hg and the ICP after treatment is listed as 25.7 ± 1.7 mm Hg. This molecule displayed a CPP before treatment in experiment [1] (before treatment) of 67.6 ± 2.2 mm Hg. This molecule also came in with an ICP before treatment in experiment [1] (before treatment, mean ± sem) of 31 ± 1.8 mm Hg. The number of survival in experiment [1] (brain trauma patients, survivors out of group) is 7 out of 11. Besides, the “number of successful treatment (only first treatment)” value in experiment [1] (first treatment only) is 5 out of 11. The “patients that survived the brain trauma” value in experiment [1] (groups of 12 patients (FIG. 2)) was 7. The “number of successful treatment (all treatments)” value in experiment [1] (out of all ICH episodes treated) is listed as 14 out of 25. Also, the “number of cross over” value in experiment [1] (patients switched to the other treatment after failure) was 4 out of 11. In experiment [1] (within the first 30 minutes after the treatment (FIG. 1)), the “decrease in the intracranial pressure” value was “about 20%”. The “ICP as share of the initial untreated ICP” value in experiment [1] (within the next 3.5 hours after the treatment (rebound, FIG. 1)) is given as “about 90%”.
